Calls of active or inactive are those of the source. No cut-off for these calls is given here.
Key:
[1] = Intrinsic clearance in human liver microsomes; format: ADME, Microsome
[2] = Apparent permeability across apical to basolateral side in RRCK cells; conditions: dog, MDCK
[3] = Lipophilicity, log D of the compound in Octanol/buffer by shake-flask method
Biotinidase = target: T1, Biotinidase (Homo sapiens, UniProt P43251); assay: Inhibition of N-terminal FLAG/His6-tagged human biotinidase expressed in COS cells using biotinyl-7-amino-4-trifluoromethylcoumarin as substrate preincubated for 10 mins followed by substrate addition and measured after 90 mins; format: cell-based
T1 sequence (P43251 whole entry): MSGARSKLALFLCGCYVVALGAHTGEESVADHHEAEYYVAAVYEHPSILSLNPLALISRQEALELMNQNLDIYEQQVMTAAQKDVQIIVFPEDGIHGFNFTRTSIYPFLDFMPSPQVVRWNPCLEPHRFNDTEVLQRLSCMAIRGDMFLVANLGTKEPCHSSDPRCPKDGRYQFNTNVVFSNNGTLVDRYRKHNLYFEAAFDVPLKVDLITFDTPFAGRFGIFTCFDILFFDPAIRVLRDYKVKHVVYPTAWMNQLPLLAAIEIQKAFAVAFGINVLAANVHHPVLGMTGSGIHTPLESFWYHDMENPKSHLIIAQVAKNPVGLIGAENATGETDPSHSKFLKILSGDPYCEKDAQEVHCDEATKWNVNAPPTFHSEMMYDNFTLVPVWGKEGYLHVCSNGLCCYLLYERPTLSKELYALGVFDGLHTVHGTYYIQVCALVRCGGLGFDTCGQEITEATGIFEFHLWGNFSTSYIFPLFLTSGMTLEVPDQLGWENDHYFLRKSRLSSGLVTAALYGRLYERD

Pantetheinase [4] = target: T2, Pantetheinase (Homo sapiens, UniProt O95497); assay: Inhibition of recombinant N-terminal FLAG/His6-tagged human vanin-1 expressed in CHO cells using Pantetheine-7-amino-4-trifluoromethykournarin as substrate preincubated for 30 mins followed by substrate addition and measured after 60 mins
T2 sequence (O95497 whole entry): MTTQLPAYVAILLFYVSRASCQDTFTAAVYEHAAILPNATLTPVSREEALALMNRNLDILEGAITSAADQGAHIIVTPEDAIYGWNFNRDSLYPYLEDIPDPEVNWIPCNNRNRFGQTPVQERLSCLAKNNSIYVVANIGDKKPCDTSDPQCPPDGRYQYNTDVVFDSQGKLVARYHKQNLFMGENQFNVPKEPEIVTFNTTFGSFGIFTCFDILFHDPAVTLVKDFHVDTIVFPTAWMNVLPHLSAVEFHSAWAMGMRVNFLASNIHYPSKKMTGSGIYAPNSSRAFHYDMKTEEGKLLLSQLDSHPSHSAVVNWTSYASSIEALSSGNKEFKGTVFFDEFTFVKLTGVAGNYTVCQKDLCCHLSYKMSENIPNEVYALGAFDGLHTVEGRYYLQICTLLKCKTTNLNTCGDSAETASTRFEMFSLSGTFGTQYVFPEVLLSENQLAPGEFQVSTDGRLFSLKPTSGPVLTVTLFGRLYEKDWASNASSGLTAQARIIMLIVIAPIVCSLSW

[5] = target: T3, Pantetheinase (Homo sapiens) (UniProt O95497); assay: Binding affinity to recombinant N-terminal FLAG/His6-tagged human vanin-1 expressed in CHO cells assessed as binding constant (Kon) by surface plasmon resonance analysis
T3 sequence (whole entry): T2 sequence (O95497 whole entry)

Pantetheinase [6] = target: T2, Pantetheinase; assay: Binding affinity to recombinant N-terminal FLAG/His6-tagged human vanin-1 expressed in CHO cells assessed as dissociation constant by surface plasmon resonance analysis
[7] = target: T3, Pantetheinase (Homo sapiens); assay: Binding affinity to recombinant N-terminal FLAG/His6-tagged human vanin-1 expressed in CHO cells assessed as binding constant (Koff) by surface plasmon resonance analysis
[8] = target: T3, Pantetheinase (Homo sapiens); assay: Binding affinity to recombinant N-terminal FLAG/His6-tagged human vanin-1 expressed in CHO cells assessed as dissociative half life by surface plasmon resonance analysis
Pantetheinase [9] = target: T2, Pantetheinase; assay: Inhibition of recombinant N-terminal FLAG/His6-tagged human vanin-1 expressed in CHO cells at 10 uM by 1H NMR analysis; format: cell-based
Mus musculus [10] = assay: Anti-colitis activity against DSS-induced BALB/c mouse model assessed as increase in body weight at 100 mg/kg, po administered for 5 to 14 days; format: functional, organism-based; conditions: time 5-14 day
Mus musculus [11] = assay: Anti-colitis activity against DSS-induced BALB/c mouse model assessed as reduction in disease activity index at 100 mg/kg, po administered for 5 to 14 days; format: functional, organism-based; conditions: time 5-14 day
Mus musculus [12] = assay: Anti-colitis activity against DSS-induced colitis BALB/c mouse model assessed as effect on colon length at 100 mg/kg, po measured after 14 days; format: functional, organism-based; conditions: time 14.0 day
Pantetheinase [13] = target: T4, Pantetheinase (Mus musculus, UniProt Q9Z0K8); assay: Inhibition of mouse vanin-1
T4 sequence (Q9Z0K8 whole entry): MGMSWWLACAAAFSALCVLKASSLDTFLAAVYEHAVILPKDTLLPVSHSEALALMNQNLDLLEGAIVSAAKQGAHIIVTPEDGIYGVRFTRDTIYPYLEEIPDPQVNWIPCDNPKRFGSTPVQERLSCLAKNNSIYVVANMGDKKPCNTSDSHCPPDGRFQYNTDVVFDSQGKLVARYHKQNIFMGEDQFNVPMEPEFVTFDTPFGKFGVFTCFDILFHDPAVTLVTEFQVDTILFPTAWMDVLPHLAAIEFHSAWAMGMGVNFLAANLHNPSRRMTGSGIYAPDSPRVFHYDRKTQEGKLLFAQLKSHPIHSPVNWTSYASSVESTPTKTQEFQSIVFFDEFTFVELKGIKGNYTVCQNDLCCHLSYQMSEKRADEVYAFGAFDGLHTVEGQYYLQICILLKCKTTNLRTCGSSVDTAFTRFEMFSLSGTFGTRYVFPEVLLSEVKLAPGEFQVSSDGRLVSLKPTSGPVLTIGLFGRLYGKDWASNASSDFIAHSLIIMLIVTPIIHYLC

Pantetheinase [14] = target: T2, Pantetheinase; assay: Inhibition of human plasma vanin-1 using pantetheine-7-amino-4-trifluoromethykournarin as substrate preincubated for 30 mins followed by substrate addition; format: cell-free
[15] = Intrinsic clearance in human hepatocytes assessed per million cells; format: ADME, cell-based, Hepatocyte
[16] = Intrinsic clearance in rat hepatocytes assessed per million cells; format: ADME, cell-based, Hepatocyte
[17] = Intrinsic clearance in human hepatocytes assessed per million cells by relay assay method; format: ADME, cell-based, Hepatocyte

Row | Compound | Intrinsic clearance [1] | Papp A→B [2] | logD [3] | IC50 (Biotinidase) | IC50 (Pantetheinase [4]) | other results
1 | O=C(c1cnc(NCc2cnccn2)nc1)N1CC2(CCOCC2)C1 | < 8 µL/min/mg | 9 ×10⁻⁶ cm/s | 0 | 7400 nM |  | 
2 | Cc1cccc(C(=O)c2cnc(NCc3cccnc3)nc2)c1 | 51 µL/min/mg | 17 ×10⁻⁶ cm/s | 2.9 |  | 52 nM | 
3 | CC(C)(Nc1ncc(C(=O)N2CCC3(CCOCC3)C2)cn1)c1cnccn1 | 18 µL/min/mg | 17 ×10⁻⁶ cm/s | 0.6 | 3600 nM | 0.06 nM | 
4 | N#C[C@@H]1CCCN(C(=O)c2cnc(NC3(c4cncnc4)CC3)nc2)C1 | < 8 µL/min/mg | 1.7 ×10⁻⁶ cm/s | -0.4 | 12700 nM | 52 nM | 
5 | O=C(c1ccccc1)c1cnc(NCc2cccnc2)nc1 | 29 µL/min/mg | 28 ×10⁻⁶ cm/s | 2.5 |  | 53 nM | 
6 | N#Cc1cccc(C(=O)c2cnc(NCc3cncnc3)nc2)c1 | 16 µL/min/mg | 23 ×10⁻⁶ cm/s | 1.2 |  | 33 nM | 
7 | N#Cc1cccc(C(=O)c2cnc(NCc3cccnc3)nc2)c1 | 38 µL/min/mg | 28 ×10⁻⁶ cm/s | 2 |  | 4.4 nM | 
8 | O=C(c1cnc(NC2(c3cnccn3)COC2)nc1)N1CCC2(CCOCC2)C1 | < 8 µL/min/mg | 2 ×10⁻⁶ cm/s | -2 |  |  | 
9 | N#Cc1cccc(C(=O)c2cnc(NC3(c4ccccc4)CC3)nc2)c1 | 26 µL/min/mg | 23 ×10⁻⁶ cm/s | 3 |  |  | 
10 | C[C@H](Nc1ncc(C(=O)N2CC3(CCOCC3)C2)cn1)c1cnccn1 | < 8 µL/min/mg | 16 ×10⁻⁶ cm/s | 0.2 | 40 nM | 0.6 nM | 
11 | O=C(c1cnc(NC2(c3cnccn3)CCC2)nc1)N1CCC2(CCOCC2)C1 | 14 µL/min/mg | 12 ×10⁻⁶ cm/s | 1 | 8900 nM | 0.04 nM | 
12 | O=C(c1cnc(NC2(c3cncnc3)CCC2)nc1)N1CCC2(CCOCC2)C1 | 32 µL/min/mg | 8 ×10⁻⁶ cm/s | 2 |  |  | 
13 | N#CC1CCCN(C(=O)c2cnc(NC3(c4cncnc4)CC3)nc2)C1 (racemic) | < 11 µL/min/mg | 1.5 ×10⁻⁶ cm/s | -0.3 | 53000 nM | 10.4 nM | K [5]: 6 10^6/M/s; Kd (Pantetheinase [6]): 7.2 nM; K [7]: 0.026 s⁻¹; T1/2 [8]: 26 s; IC50 (Pantetheinase [9]): 45 nM
14 | CS(=O)(=O)C1CCCN(C(=O)c2cnc(NC3(c4cncnc4)CC3)nc2)C1 (racemic) | < 8 µL/min/mg | 0.9 ×10⁻⁶ cm/s | -0.8 | > 13000 nM | 203 nM | K [5]: 4.1 10^5/M/s; Kd (Pantetheinase [6]): 37 nM; K [7]: 0.0088 s⁻¹; T1/2 [8]: 79 s; IC50 (Pantetheinase [9]): 122 nM
15 | CS(=O)(=O)[C@@H]1CCCN(C(=O)c2cnc(NC3(c4cncnc4)CC3)nc2)C1 | < 8 µL/min/mg | 0.6 ×10⁻⁶ cm/s | -1 | 62000 nM | 10.6 nM | 
16 | O=C(O)c1cc(/N=N/c2ccc(S(=O)(=O)Nc3ccccn3)cc2)ccc1O |  |  |  |  |  | Activity (Mus musculus [10]): Active; Activity (Mus musculus [11]): inactive; Activity (Mus musculus [12]): Active
17 | CC(C)(Nc1ncc(C(=O)N2CC3(CCOCC3)C2)cn1)c1cnccn1 | < 13 µL/min/mg | 14 ×10⁻⁶ cm/s | 0.6 | 1200 nM | 0.11 nM | IC50 (Pantetheinase [13]): 0.41 nM; IC50 (Pantetheinase [14]): 0.88 nM; CLint [15]: < 3.5 µL/min/1e6 cells; CLint [16]: 25.8 µL/min/1e6 cells; CLint [17]: 1.66 µL/min/1e6 cells
18 | O=C(c1cnc(NC2(c3cncnc3)CC2)nc1)N1CCC2(CCOCC2)C1 | < 10 µL/min/mg | 2 ×10⁻⁶ cm/s | 0 | 1020 nM |  | 
19 | C[C@@H](Nc1ncc(C(=O)N2CCC3(CCOCC3)C2)cn1)c1cnccn1 | < 8 µL/min/mg | 11 ×10⁻⁶ cm/s | 1 | > 50000 nM |  | 
20 | O=C(c1cnc(NC2(c3cncnc3)COC2)nc1)N1CCC2(CCOCC2)C1 | < 8 µL/min/mg | < 0.2 ×10⁻⁶ cm/s | -3 | 1300 nM |  | 
21 | N#C[C@H]1CCCN(C(=O)c2cnc(NC3(c4cncnc4)CC3)nc2)C1 |  |  |  |  | 1200 nM | 
22 | O=C(c1cnc(NCc2cncnc2)nc1)N1CCC2(CCOCC2)C1 | 12 µL/min/mg | 3 ×10⁻⁶ cm/s | 0 | 11000 nM |  | 
23 | C[C@H](Nc1ncc(C(=O)N2CCC3(CCOCC3)C2)cn1)c1cncnc1 | < 8 µL/min/mg | 7 ×10⁻⁶ cm/s | 2 |  |  | 
24 | CC(C)(Nc1ncc(C(=O)N2CCC3(CCOCC3)C2)cn1)c1cncnc1 | 15 µL/min/mg | 4 ×10⁻⁶ cm/s | 0.5 | 1900 nM | 0.08 nM | 
25 | CS(=O)(=O)[C@H]1CCCN(C(=O)c2cnc(NC3(c4cncnc4)CC3)nc2)C1 | < 8 µL/min/mg | 0.6 ×10⁻⁶ cm/s | -1 |  | 1100 nM | 
26 | C[C@@H](Nc1ncc(C(=O)N2CCC3(CCOCC3)C2)cn1)c1cncnc1 | < 8 µL/min/mg | 6 ×10⁻⁶ cm/s | 0.2 | > 50000 nM |  | 
27 | O=C(c1cnc(NC2(c3cnccn3)CCC2)nc1)N1CC2(CCOCC2)C1 | 19 µL/min/mg | 17 ×10⁻⁶ cm/s | 0.8 |  | 0.04 nM | 
28 | N#Cc1cccc(C(=O)c2cnc(NCc3ccccc3)nc2)c1 | 48 µL/min/mg | 19 ×10⁻⁶ cm/s | 3 |  |  | 
29 | O=C(c1cnc(NCc2cccnc2)nc1)N1CCC2(CCOCC2)C1 | < 8 µL/min/mg | 6 ×10⁻⁶ cm/s | 0.7 | 11300 nM |  | 
30 | O=C(c1cnc(NCc2cccnc2)nc1)c1cccs1 | 14.5 µL/min/mg | 24 ×10⁻⁶ cm/s | 2.2 |  |  | 
